Here are results for two compounds from PMC6053448, “Small molecule activator of Nm23/NDPK as an inhibitor of metastasis” (Scientific Reports, 2018).

The target in assay [1] is T1, recombinant human Nm23-H1 (NDPK-A) (Homo sapiens, UniProt P15531).
T1 construct: gene NME1; pET-3c, E. coli BL21(DE3), no tag mentioned; ATP-sepharose purification
The assay is described as follows: NDPK assay, activation. To be noted: number only in supplement. It counts as biochemical.

The target in assay [2] is T1, recombinant human Nm23-H1 (NDPK-A). The assay can be described thus: NDPK assay, double reciprocal plot. Format: biochemical. The following applies: 5 µM ATP, without NMac1.

T1 sequence (P15531 whole entry): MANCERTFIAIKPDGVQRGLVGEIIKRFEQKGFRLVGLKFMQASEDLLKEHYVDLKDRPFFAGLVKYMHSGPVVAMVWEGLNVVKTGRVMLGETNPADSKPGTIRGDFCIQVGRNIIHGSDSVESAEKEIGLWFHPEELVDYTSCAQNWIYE

Take `COc1ccc(/C=C/[C@H]2CCC=C[C@@H]2c2ccc(OC)c(OC)c2)cc1OC` [NMac3, 3S-(3,4-dimethoxyphenyl)-4R-[(E)-3,4-dimethoxystyryl]cyclohex-1-ene]: the “% activation” value in assay [1] is reported as “The chirality of the molecule did not affect the activation of Nm23-H1”.

Consider `O=c1ccn([C@@H]2O[C@H](COP(=O)(O)OP(=O)(O)O)[C@@H](O)[C@H]2O)c(=O)[nH]1` [UDP], for which the Km result in assay [2] is on record as “NMac1 decreased the Km value of Nm23-H1 for substrate UDP without affecting Vmax”.
